Experimental findings from patent EP3345917A1, “ANTIPROTOZOAL COMPOUNDS” (Bacoba AG, priority 2017, dated 2018) are described below.

“And” between values parts separate entries of the source, which are not always exact repeats. Equal entries are not always repeated. “Also recorded” adds a separate entry of the source. Where two headings read alike, the source gives them in different places. Non-standard residues stand in square brackets, D forms with d. Residues, ends and D or L forms follow the SMILES beside them. *: point of attachment. Hexenoyl(2E,4S-Me) = CC[C@H](C)/C=C/C(=O)*; Leu(3R-OH) = CC(C)[C@@H](O)[C@H](N)C(=O)O; NH(1-CH2NMe2-cBu) = CN(C)CC1(N*)CCC1; Gly(octyl) = CCCCCCCC[C@H](N)C(=O)O; Benzoyl(4-F) = O=C(c1ccc(F)cc1)*; hCha = N[C@@H](CCC1CCCCC1)C(=O)O; X17 = C[C@@H](CN1CCOCC1)N*; Aib = CC(C)(N)C(=O)O; βAla = NCCC(=O)O

Data set [1] relates to intracellular Leishmania donovani (L.don. InMac). As to the kind of experiment: Intracellular Leishmania donovani assay (L.don. InMac). Type of data set: cell-based. Conditions: In vitro inhibition. From the text: (§1) Tests were done in triplicate.
Data set [2] can be described thus: Cytotoxicity assay on L6-cells (Alamar Blue). Conditions: rat, Cytotox L6, Cytotoxicity against rat myoblast cells (L6). A general note: Alamar Blue is a resazurin reagent that responds to reducing activity.
Data set [3] relates to rat myoblast (L6-cells). As to the kind of experiment: Cytotoxicity assay on L6-cells (Alamar Blue). The conditions noted are these: read-out: Cytotox L6; Cytotoxicity against rat myoblast cells (L6).
Data set [4] is described as follows: Cytotoxicity assay on L6-cells (Alamar Blue). Conditions: rat, L6 rat myoblast cells. As to the method: (§2) Testing of compounds against Plasmodium falciparum (K1 strain), Trypanosoma brucei rhodesiense (STIB 900 strain), Trypanosoma cruzi trypomastigote forms (Tulahuen strain), and Leishmania donovani (strain MHOM/ET/67/L82) was performed in 96 well plates at concentrations in serial dilutions. Tests were done in triplicate. IC50 values against the parasites as well as cytotoxic effects against rat myoblast (L6-cells) were determined by serial dilution and repeated twice.

The subject of data set [5] is rat myoblast (L6-cells). The data set is described as follows: Cytotoxicity assay on L6-cells (Alamar Blue). Conditions: Rattus norvegicus, Myoblast, 70 h. As to the method: as §2
The test system of data set [6] is Trypanosoma brucei rhodesiense (STIB 900 strain). The data set is described as follows: Alamar Blue assay against Trypanosoma brucei rhodesiense grown in axenic medium. Type of data set: cell-based. Conditions: In vitro inhibition, read-out: T.b.rhod. A digest of the protocol:
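Alamar Blue-based IC50 determination, in triplicate, on axenically grown STIB 900 trypanosomes. Melarsoprol included as reference.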

In data set [7] the test system is Trypanosoma cruzi trypomastigote forms (Tulahuen strain). As to the kind of experiment: Intracellular Trypanosoma cruzi assay in L6-cells, beta-galactosidase/CPRG readout. Type of data set: cell-based. The conditions noted are these: In vitro inhibition, read-out: T.cruzi. In a few lines: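 Readout was β-galactosidase cleavage of CPRG, read photometrically at 540 nm after 2–6 h colour development, giving IC50 values. Parasites: LacZ-expressing Tulahuen C2C4 strain grown in rat L6 myoblasts; run in triplicate.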

For data set [8], the system named is Axenically grown Leishmania donovani amastigotes (strain MHOM/ET/67/L82). As to the kind of experiment: Axenic Leishmania donovani amastigote resazurin assay. Type of data set: cell-based. The conditions noted are these: In vitro inhibition, read-out: L.don. ax. In a few lines: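 IC50 values derive from resazurin fluorescence (ex 536 nm, em 588 nm), expressed relative to the negative control, after 2-4 hours of plate development. Axenic amastigotes of strain MHOM/ET/67/L82 were used; each test run in triplicate.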

For data set [9], the system named is Plasmodium falciparum. The data set is described as follows: 3H-hypoxanthine incorporation assay against Plasmodium falciparum. Type of data set: cell-based. Conditions: In vitro inhibition, read-out: P.falc NF5. As to the method:
as §1
IC50 values were calculated by linear interpolation.

Data set [10] has as its system Trypanosoma brucei brucei. The data set is described as follows: Acute mouse sleeping sickness model (in vivo antitrypanosomal activity). For Parasitaemia day 7: key: 0 = no parasite in 20 fields of view; ((+)) = 1 Trypanosome in 20 fields of view; (+) = 1 Trypanosome per field of view; + = 2 - 5 Trypanosomes per field of view; ++ = 6 - 20 Trypanosomes per field of view, the mouse is killed; +++ = > 20 Trypanosomes per field of view, the mouse is killed. How it is done: This model mimics the first stage of the human African trypanosomiasis. Adult female NMRI mice were purchased from Janvier (St. Berthevin, France). They weighed between 20 and 25 g at the beginning of the study and were kept under standard conditions at 22 °C and 60-70% humidity in macro Ion type III cages with food pellets and water ad libitum. The samples were first dissolved in 100% DMSO, followed by addition of distilled H2O to a final DMSO concentration of 10%. For determination of the in vivo antitrypanosomal activity, mice were infected intraperitoneally with 1 x 10^4 STIB900 bloodstream forms. […] A control group of four mice was infected, but remained untreated. The determination of the parasitaemia was done on days 7, 10, 14, 17, 21, 24, 28, and 31 post infection. To do this 6 µL of tail blood were diluted in 24 µL sodium citrate (3.2%), whereby the first µL was discarded to obtain circulating blood. Five µL of this mixture were transferred to a glass slide and covered with an 18 x 18 mm cover slide. The sample was examined under a light microscope (200-fold magnification) and parasites were counted in 3 of the 16 squares of the grid.

Data set [11] has as its system Plasmodium falciparum K1 strain. As to the kind of experiment: microbe, parasite or virus in culture. How it is done:
as §2
Determination of activity against Plasmodium falciparum K1 strain was done using a modified version of the ^3H-hypoxanthine incorporation assay by Trager and Jensen (Trager W. and Jensen, J.B. Science 1976; 193:673-675). After incubation the plates were harvested using a Betaplate cell harvester (Wallac, Switzerland) onto glass-fiber filters and washed. The dried filters were inserted into plastic foils with 10 ml scintillation fluid. The radioactivity was counted with a Betaplate liquid scintillation counter (Wallac, Switzerland) as counts per minute per well at each drug concentration and compared to the untreated controls. […] IC50 values were calculated by linear interpolation. All assays were run in duplicate and repeated two times.

Where [12] appears, read: 3 mg/kg per injection, 2 per day, 2 treatment days, i.p., group of four mice.
The mark [13] stands for this setting: 3 mg/kg per injection, 2 per day, 2 treatment days, i.p., individual mice.
Setting [14] is: 3 mg/kg twice a day for 2 days, intraperitoneal.

`CCCCCCCC[C@H](NC(=O)[C@@H]1CCCN1C(=O)/C=C/[C@@H](C)CC)C(=O)N[C@H](C(=O)NC(C)(C)C(=O)N[C@@H](CC(C)C)C(=O)N[C@@H](CC(C)C)C(=O)NC(C)(C)C(=O)NC(C)(C)C(=O)NCCC(=O)N[C@@H](C)CN1CCOCC1)[C@H](O)C(C)C` [Compound 5573, (2S)-N-[(1S,2R)-2-hydroxy-3-methyl-1-[(1-methyl-1-{[(1S)-3-methyl-1-{[(1S)-3-methyl-1-{[1-methyl-1-({1-methyl-1-[(2-{[(2S)-1-(morpholin-4-yl)propan-2-yl]carbamoyl}ethyl)carbamoyl]ethyl}carbamoyl)ethyl]carbamoyl}butyl]carbamoyl}butyl]carbamoyl}ethyl)carbamoyl]butyl]-2-{[(2S)-1-[(2E,4S)-4-methylhex-2-enoyl]pyrrolidin-2-yl]formamido}decanamide] ({Hexenoyl(2E,4S-Me)}-P[Gly(octyl)][Leu(3R-OH)][Aib]LL[Aib][Aib][βAla]-X17): the values for the IC50 in [1] and in data set [3] were 20.4 nM and 738 nM, respectively. The compound also yielded an IC50 at 70 h in [2] of 512 nM.

Take `COc1cc([C@@H]2c3cc4c(cc3[C@H](O)[C@H]3COC(=O)[C@H]23)OCO4)cc(OC)c1OC` [Podophyllotoxin]: the IC50 at 70 h in data set [4] amounted to 19.3 nM. The same compound had an IC50 in data set [5] of 50 ± 10 nM.

On to `CC(C)C[C@H](NC(=O)[C@H](CCC1CCCCC1)NC(=O)[C@@H]1CCCN1C(=O)c1ccc(F)cc1)C(=O)NC(C)(C)C(=O)N[C@@H](CC(C)C)C(=O)N[C@@H](CC(C)C)C(=O)NC(C)(C)C(=O)NC(C)(C)C(=O)NCCC(=O)NC1(CN(C)C)CCC1` [Compound 6027, (2S)-2-[(2S)-4-cyclohexyl-2-{[(2S)-1-(4-fluorobenzoyl)pyrrolidin-2-yl]formamido}butanamido]-N-(1-{[(1S)-1-{[(1S)-1-({1-[(1-{[2-({1-[(dimethylamino)methyl]cyclobutyl}carbamoyl)ethyl]carbamoyl}-1-methylethyl)carbamoyl]-1-methylethyl}carbamoyl)-3-methylbutyl]carbamoyl}-3-methylbutyl]carbamoyl}-1-methylethyl)-4-methylpentanamide] ({Benzoyl(4-F)}-P[hCha]L[Aib]LL[Aib][Aib][βAla]-{NH(1-CH2NMe2-cBu)}), for which, in data set [6], the IC50 was 0.4 nM. In addition, in data set [7], the IC50 was found to be 155 nM. Moreover, the IC50 in data set [8] worked out at 34100 nM. Besides, the IC50 in data set [1] was determined as 54.2 nM. Further, the IC50 in data set [9] was found to be 42500 nM. Further, in data set [10] (setting [12]), the “Mean day of relapse” value is 17 days and the “Mean day of survival” value was 18 days. In addition, in data set [10] (setting [13]), the Day of relapse was determined as 17 days, the “Parasitaemia day 7” value stood at 0, the “Parasitaemia day 10” value was 0 and the “Parasitaemia day 14” value amounted to 0. Also, in [10] (setting [13]), the “Parasitaemia day 17” value was “++ (++ = 6 - 20 Trypanosomes per field of view, the mouse is killed); also recorded: + (+ = 2 - 5 Trypanosomes per field of view)”; the “Parasitaemia day 21” value is on record as “((+)) (((+)) = 1 Trypanosome in 20 fields of view)”; the “Parasitaemia day 24” value was “((+)) (((+)) = 1 Trypanosome in 20 fields of view)”; the “Parasitaemia day 28” value was “(+) ((+) = 1 Trypanosome per field of view)”. In addition, in data set [10] (setting [13]), the “Parasitaemia day 31” value is reported as “(+) ((+) = 1 Trypanosome per field of view)”; the Survival days was 17 days (2×) and 31 days and 5 days. In data set [10] (setting [14]), the “parasitaemia by day 17” value was “all surviving animals showed parasitaemia” and the “parasitaemia of the surviving animal at day 31” value is “low parasitaemia”. Besides, the “animals sacrificed after parasitaemia relapse” value in [10] (3 mg/kg twice a day for 2 days, intraperitoneal, after day 17) is “two”. Further, in data set [10] (3 mg/kg twice a day for 2 days, intraperitoneal, day 7 post infection), the “parasitaemia on day 7” value is on record as “no observable parasitaemia”. In [10] (3 mg/kg twice a day for 2 days, intraperitoneal, four mice), the “reduction of parasitaemia compared to untreated controls” value was “significant reduction of parasitaemia”. Further, the “animals surviving until day 31” value in data set [10] (3 mg/kg twice a day for 2 days, intraperitoneal, group of four mice) is reported as “one”. Also, the animals surviving treatment result in data set [10] (3 mg/kg twice a day for 2 days, intraperitoneal, one death on day 5 for unspecified reasons) is reported as “all animals survived treatment, except for one”. Besides, the IC50 at 70 h in data set [2] worked out at 1390 nM.

As to `CCN(CC)CCCC(C)Nc1ccnc2cc(Cl)ccc12` (centres unmarked) [Chloroquine], the IC50 in [11] (K1) came out at 50 ± 10 nM; in [11] (K1, read-out: P.falc NF5), 6.25 nM.
